Measurements as given in US9938240B2, “Fluorinated derivatives of 3-hydroxypyridin-4-ones” (Apotex Technologies Inc., priority 2009, dated 2018).

Tests used:
[1] = Benzoic acid hydroxylation assay; settings: benzoic acid 1 mM, H2O2 6 mM, FeCl3 30 μM, chelator 30 μM, pH 7.4, up to 81 h
Excerpt: Benzoic acid is a hydroxyl radical scavenger and reacts with hydroxyl radical to give 2-hydroxy, 3-hydroxy and 4-hydroxybenzoic acids. The benzoic acid hydroxylation assay is a chemical assay designed to detect damage caused by hydroxyl radical (Dean and Nicholson, Free Radical Research 1994, vol 20, 83-101). For example, deferiprone suppresses the formation of hydroxybenzoic acids in the presence of iron salts and hydrogen peroxide, while EDTA and iron salts allow such hydroxylation reactions to take place.
This screening assay involves the use of iron salt, benzoic acid, hydrogen peroxide and the chelator and measures the ability of the chelator to inhibit the formation of hydroxybenzoate as an indicator to prevent hydroxyl radical formation in living system.
Briefly, this procedure is based on the ability of hydroxyl radicals to hydroxylate benzoate to give 2-, 3- and 4-hydroxylated benzoic acid products. Benzoic acid (1 mM) is incubated over time up to 81 h at room temperature in the dark in 10 mM phosphate buffer (pH 7.4) with 6 mM hydrogen peroxide, ferric chloride (30 μM) and the Fe chelator (30 μM). HPLC is the method of choice used to monitor and quantify the amount of 2-, 3- and 4-hydroxylated products formed over time in the reaction mixture, and can be verified against authentic benzoic acid and its hydroxylated products via their respective retention times and areas under curve. In addition, several controls are used: (i) a control without added Fe stock solution and Fe chelator; (ii) a control without added Fe chelator; (iii) EDTA as positive control; and (iv) deferiprone as negative control. The Fe-EDTA system is a hydroxyl radical generator and is known to promote hydroxylation of benzoic acid.

SV-NRA cells = experiment: MPP+ treated SV-NRA cell viability (MTT); type: cell-based; settings: 5 mM MPP+ treated SV-NRA cells, 20 μM, 24 h, p<0.05
Method: SV-NRAs cells were plated in a 96-well plate at a density of 10,000 cells/well in 100 μL of DME […], high glucose 1× liquid (Sigma) supplemented with 10% heat-inactivated FBS and 1× antibiotic/antimycotic solution (Sigma). On the next day, the cells were washed with EMEM media (Eagle's minimal essential media; phenol red, serum and glutamine free) and treated for 24 h with 5 mM MPP^+ (1-methyl-4-phenylpyridinium) in EMEM media in the presence or absence of a tested iron chelating compound. All compounds were tested at the following concentrations: 10 μM, 20 μM, and 40 μM. After 24 h of incubation, cell viability was determined with MTT ((3-(4,5-Dimethylthiazol-2-yl)-2,5-diphenyltetrazolium bromide, a yellow tetrazole) assay which measures mitochondrial activity (Carmichael et al. Cancer Research 1987, 47, 936-942). MTT solution (10 μL, 5 mg/mL) was added to the wells and incubated for 2 h. Formazan product was solubilized with 100 μL of 10% SDS (sodium dodecyl sulphate) in 0.01M HCl. Optical density was determined at 570 nm using Multiscan Ascent plate reader (Labsystems) and data collected were corrected for background signal measured at 650 nm. All data are expressed as % of control.
Co-treatment with iron chelators protected the cells from MPP^+ toxicity.

| SMILES | hydroxylation of benzoic acid by Fe chelate [1] | increase in cell viability (SV-NRA cells) |
| --- | --- | --- |
| CN(C)C(c1c(O)c(=O)ccn1C)C(F)(F)F (centres unmarked) [Apo7041, 2-[1-(dimethylamino)-2,2,2-trifluoroethyl]-3-hydroxy-1-methylpyridin-4(1H)-one] | do not promote the hydroxylation of benzoic acid |  |
| Cc1c(O)c(=O)ccn1C [Deferiprone, 3-hydroxy-1,2-dimethylpyridin-4(1H)-one, reference compound] |  | about 20% |
